Molecular target: T1, MERTK (cMER) A708S (Homo sapiens, UniProt Q12866, A708S)
T1 construct: purchased Thermo Fisher Scientific (Life Technologies) SelectScreen
Experiment: SelectScreen LanthaScreen
Format: binding
Conditions: read-out: % displacement
Method: The in vitro kinase selectivity of NU5455 was determined using the SelectScreen Broad Assay Panel (Thermo Fisher Scientific) involving activity and binding assays (Supplemental Table 1). […] Class IA PI3Ks were measured using the p85α subunit.
Kinase [ATP] % Assay Kinase [ATP] % Assay Kinase [ATP] % Assay Kinase [ATP] % Assay […]
FGR Km app 12.1 Z SRC N1 Km app 3.9 Z MERTK (cMER) A708S n/a 0.6 L RET M918T n/a -3.5 L […]
SGK (SGK1) Km app 8.5 Z MAP4K2 (GCK) Km app 2.7 Z TLK2 n/a -0.3 L STK38 (NDR) n/a -5.9 L
MERTK (cMER) Km app 8.3 Z CDK2/cyclin A Km app 2.7 Z TGFBR1 (ALK5) n/a -0.4 L MATK (HYL) Km app -6.3 Z
FYN Km app 8.3 Z EPHA1 Km app 2.7 Z CLK3 Km app -0.5 Z ABL1 E255K Km app -6.6 Z
TEC n/a 8.1 L CDK2/cyclin E1 n/a 2.7 L MAP3K14 (NIK) n/a -0.5 L STK17A (DRAK1) n/a -6.6 L
KIT V654A n/a 8.1 L TESK2 n/a 2.7 L AKT3 (PKB gamma) Km app -0.5 Z JAK2 JH1 JH2 Km app -6.7 Z
ROS1 Km app 8.0 Z SPHK1 Km app 2.7 A MAP3K9 (MLK1) Km app -0.5 Z PRKACB (PRKAC beta) n/a -6.8 L
FGFR3 K650E Km app 7.9 Z AMPK A2/B1/G1 Km app 2.6 Z IKBKB (IKK beta) Km app -0.6 Z PDGFRA (PDGFR alpha) Km app -6.8 Z
RAF1 (cRAF) Y340D Y341D 100 7.9 Z DYRK3 Km app 2.6 Z CAMK2A (CaMKII alpha) Km app -0.6 Z NEK9 Km app -7.2 Z
PI4KA (PI4K alpha) 10 7.8 A CSNK1D (CK1 delta) Km app 2.6 Z PRKCB1 (PKC beta I) Km app -0.7 Z PDK1 Km app -7.3 Z
HIPK2 Km app 7.8 Z ACVR2A n/a 2.5 L TTK n/a -0.7 L RPS6KB1 (p70S6K) Km app -7.8 Z […]

T1 sequence (Q12866 21-999 A708S): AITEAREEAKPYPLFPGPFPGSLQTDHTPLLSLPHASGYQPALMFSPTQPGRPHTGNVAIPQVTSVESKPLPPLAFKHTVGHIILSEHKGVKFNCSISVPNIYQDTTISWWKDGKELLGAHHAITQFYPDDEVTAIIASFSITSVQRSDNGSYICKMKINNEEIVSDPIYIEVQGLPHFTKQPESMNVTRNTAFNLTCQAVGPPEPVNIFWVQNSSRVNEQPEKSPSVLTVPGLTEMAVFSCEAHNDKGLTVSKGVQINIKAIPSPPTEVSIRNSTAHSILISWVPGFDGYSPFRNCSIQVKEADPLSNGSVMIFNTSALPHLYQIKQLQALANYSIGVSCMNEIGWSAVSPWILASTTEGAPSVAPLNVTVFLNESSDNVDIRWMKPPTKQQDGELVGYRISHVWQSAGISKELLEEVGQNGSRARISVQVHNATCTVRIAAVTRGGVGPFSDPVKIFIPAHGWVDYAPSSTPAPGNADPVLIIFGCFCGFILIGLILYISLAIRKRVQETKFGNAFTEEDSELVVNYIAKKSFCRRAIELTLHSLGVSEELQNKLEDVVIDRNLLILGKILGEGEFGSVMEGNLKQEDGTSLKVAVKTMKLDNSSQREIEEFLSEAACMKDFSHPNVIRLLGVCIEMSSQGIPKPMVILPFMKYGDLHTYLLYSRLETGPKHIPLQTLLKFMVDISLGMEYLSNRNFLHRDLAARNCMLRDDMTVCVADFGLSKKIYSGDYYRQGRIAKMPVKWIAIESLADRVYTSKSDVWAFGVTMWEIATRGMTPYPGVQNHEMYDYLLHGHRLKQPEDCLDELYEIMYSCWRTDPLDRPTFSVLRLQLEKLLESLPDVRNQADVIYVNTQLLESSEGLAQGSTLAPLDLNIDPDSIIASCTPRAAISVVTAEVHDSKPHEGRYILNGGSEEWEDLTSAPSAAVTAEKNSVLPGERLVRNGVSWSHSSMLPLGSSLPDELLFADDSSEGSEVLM

CN(C(=O)CN1CCOCC1)c1ccc2sc3c(-c4cccc5c(=O)cc(N6CC7CCC(C6)O7)oc45)cccc3c2c1 [NU5455]
inhibition at 1 µM: 0.6%

Source: PMC6934184, “Selective DNA-PKcs inhibition extends the therapeutic index of localized radiotherapy and chemotherapy” (The Journal of Clinical Investigation, 2019)
